In ChEMBL document CHEMBL1143165, “N-[omega-[4-(2-methoxyphenyl)-1-piperazinyl]alkyl]-2-quinolinamines as high-affinity fluorescent 5-HT1A receptor ligands” (J Med Chem, 2008):
pEC50, pKi: −log10 of the molar value. The source made the active and inactive calls. The rule behind the calls is not given here.

What was measured:
[1] = target: T1, 5-hydroxytryptamine receptor 1A (Homo sapiens, UniProt P08908); assay: Displacement of [3H]8-OH-DPAT from human 5HT1A receptor expressed in HEK293 cells after 120 mins; type: cell-based
T1 sequence (P08908 whole entry): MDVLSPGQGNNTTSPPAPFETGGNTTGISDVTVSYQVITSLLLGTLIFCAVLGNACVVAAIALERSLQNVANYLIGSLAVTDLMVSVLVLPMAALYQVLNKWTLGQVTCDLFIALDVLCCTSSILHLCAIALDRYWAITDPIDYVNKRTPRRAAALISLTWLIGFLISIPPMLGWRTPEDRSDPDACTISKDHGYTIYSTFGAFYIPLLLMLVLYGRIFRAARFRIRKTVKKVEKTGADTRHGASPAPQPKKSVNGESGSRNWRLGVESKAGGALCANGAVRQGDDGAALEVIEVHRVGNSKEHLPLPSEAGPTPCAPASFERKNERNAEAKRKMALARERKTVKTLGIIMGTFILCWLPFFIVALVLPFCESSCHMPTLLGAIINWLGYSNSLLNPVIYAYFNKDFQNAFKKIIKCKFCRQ

[2] = Agonist activity at 5HT1A receptor in guinea pig ileum assessed as inhibition of electrically-stimulated muscle contraction; type: functional, tissue-based; settings: Cavia porcellus
[3] = Agonist activity at 5HT1A receptor in guinea pig ileum assessed as inhibition of electrically-stimulated muscle contraction relative to baseline; type: functional, Cavia porcellus; set-up: scale not given: the % may be the effect or the level left
Cavia porcellus = organism: Cavia porcellus; assay: Reversal of agonist activity at 5HT1A receptor in guinea pig in presence of 5HT1A antagonist WAY-100635; type: functional

| SMILES | pKi [1] | also measured |
| --- | --- | --- |
| COc1ccc2ccc(NCCN3CCN(c4ccccc4OC)CC3)nc2c1 | 8.68 | – |
| COc1ccccc1N1CCN(CCCNc2ccc3ccccc3n2)CC1 | 7.89 | – |
| COc1ccc2nc(NCCCCCN3CCN(c4ccccc4OC)CC3)ccc2c1 | 8.59 | – |
| COc1ccccc1N1CCN(CCNc2ccc3ccccc3n2)CC1 | 7.48 | – |
| COc1ccccc1N1CCN(CCNc2ccc3cc([N+](=O)[O-])ccc3n2)CC1 | 7.85 | – |
| COc1ccccc1N1CCN(CCCCNc2ccc3cc(C)ccc3n2)CC1 | 9.27 | – |
| COc1ccccc1N1CCN(CCCCNc2ccc3cc(N)ccc3n2)CC1 | 9.42 | pEC50 [2]: 4.21; Activity [3]: 81% |
| COc1ccc2nc(NCCCN3CCN(c4ccccc4OC)CC3)ccc2c1 | 7.66 | – |
| COc1ccc2ccc(NCCCCN3CCN(c4ccccc4OC)CC3)nc2c1 | 8.34 | – |
| COc1ccc2nc(NCCCCN3CCN(c4ccccc4OC)CC3)ccc2c1 | 9.70 | pEC50 [2]: 4.46; Activity (Cavia porcellus): Active |
| COc1ccccc1N1CCN(CCCCNc2ccc3ccccc3n2)CC1 | 8.01 | – |
| COc1ccccc1N1CCN(CCCCCNc2ccc3ccccc3n2)CC1 | 10.52 | – |
| COc1ccc2ccc(NCCCN3CCN(c4ccccc4OC)CC3)nc2c1 | 9.70 | – |
| COc1ccc2nc(NCCN3CCN(c4ccccc4OC)CC3)ccc2c1 | 7.55 | – |
| COc1ccc2ccc(NCCCCCN3CCN(c4ccccc4OC)CC3)nc2c1 | 9.30 | – |
